The values that follow come from PMC7270175, “Micelle-stabilized Olfactory Receptors for a Bioelectronic Nose Detecting Butter Flavors in Real Fermented Alcoholic Beverages” (Scientific Reports, 2020).

The target in this assay is T1, ODR-10 (Caenorhabditis elegans, UniProt Q18807).
T1 construct: ODR-10 in pET-DEST42 (V5 and Ni-column purification tag), E. coli BL21(DE3), SDS-solubilized, reconstituted in DDM/Cymal 6 detergent micelles; also pcDNA3 ODR-10 in HEK-293 cells
T1 sequence (Q18807 1-339): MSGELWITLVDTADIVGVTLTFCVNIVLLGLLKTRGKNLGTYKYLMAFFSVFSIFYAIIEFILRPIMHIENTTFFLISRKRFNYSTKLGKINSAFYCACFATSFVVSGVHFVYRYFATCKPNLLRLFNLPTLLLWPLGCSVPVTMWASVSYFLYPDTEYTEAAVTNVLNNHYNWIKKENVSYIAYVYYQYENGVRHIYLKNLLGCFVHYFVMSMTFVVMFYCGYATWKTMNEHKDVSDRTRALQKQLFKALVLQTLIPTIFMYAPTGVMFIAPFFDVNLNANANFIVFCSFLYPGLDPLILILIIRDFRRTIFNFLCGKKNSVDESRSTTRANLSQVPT
Briefly: carbon nanotube FET, Hill fit of conductance response. It is filed as binding. The conditions noted are these: read-out: K.

Turning to `CC(=O)C(C)=O` [Diacetyl, 2,3-butanedione], the Kd is ~1.7 pM.
